Reference: US9492471B2, “Methods of treating a disease or disorder associated with Bruton'S Tyrosine Kinase” (Celgene Avilomics Research, Inc., priority 2013, dated 2016)
Like-named read-outs stand apart in the source and are kept apart here.

What was measured:
Assay in all cases: HotSpot kinase profiling
Type in all cases: biochemical
EPHB2 = target: T1, EPHB2 (Homo sapiens, UniProt P29323)
T1 construct: purchased Reaction Biology Corp
T1 sequence (P29323 19-1055): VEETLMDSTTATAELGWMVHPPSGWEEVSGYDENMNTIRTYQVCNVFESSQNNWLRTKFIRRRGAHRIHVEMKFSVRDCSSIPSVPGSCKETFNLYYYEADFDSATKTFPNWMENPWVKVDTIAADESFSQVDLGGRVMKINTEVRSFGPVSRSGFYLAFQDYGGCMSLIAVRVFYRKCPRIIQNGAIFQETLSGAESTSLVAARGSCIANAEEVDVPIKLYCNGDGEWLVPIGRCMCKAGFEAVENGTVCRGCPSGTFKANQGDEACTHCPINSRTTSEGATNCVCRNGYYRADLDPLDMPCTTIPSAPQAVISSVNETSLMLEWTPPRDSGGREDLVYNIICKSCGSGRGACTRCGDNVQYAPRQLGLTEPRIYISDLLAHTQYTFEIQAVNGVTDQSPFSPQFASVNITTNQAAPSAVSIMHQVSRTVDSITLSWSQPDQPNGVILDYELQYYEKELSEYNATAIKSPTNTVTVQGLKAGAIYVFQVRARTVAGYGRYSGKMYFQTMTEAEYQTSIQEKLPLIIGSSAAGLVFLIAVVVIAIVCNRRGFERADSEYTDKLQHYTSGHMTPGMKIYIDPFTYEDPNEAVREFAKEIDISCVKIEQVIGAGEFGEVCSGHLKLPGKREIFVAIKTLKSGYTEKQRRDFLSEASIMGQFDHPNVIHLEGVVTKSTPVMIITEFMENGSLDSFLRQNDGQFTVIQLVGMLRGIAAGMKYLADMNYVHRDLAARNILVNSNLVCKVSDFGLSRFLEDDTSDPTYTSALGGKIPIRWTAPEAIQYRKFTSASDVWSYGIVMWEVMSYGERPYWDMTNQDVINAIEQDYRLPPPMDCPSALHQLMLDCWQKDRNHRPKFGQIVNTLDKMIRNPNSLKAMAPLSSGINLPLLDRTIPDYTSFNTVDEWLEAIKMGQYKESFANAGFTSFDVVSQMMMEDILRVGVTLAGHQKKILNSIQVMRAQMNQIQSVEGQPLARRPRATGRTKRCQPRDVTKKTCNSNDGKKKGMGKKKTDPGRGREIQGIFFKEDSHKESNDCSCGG
Procedure, shortened: (§1)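 Activity is measured by radiolabel transfer captured on P81 filters after a 2 h room-temperature reaction of kinase, substrate and cofactors. Values are percent inhibition against DMSO.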

TTBK2 = target: T2, TTBK2 (Homo sapiens, UniProt Q6IQ55)
T2 construct: purchased Reaction Biology Corp
Procedure, shortened: as §1

TEC = target: T3, TEC (Homo sapiens, UniProt P42680)
T3 construct: purchased Reaction Biology Corp
T3 sequence (P42680 1-631): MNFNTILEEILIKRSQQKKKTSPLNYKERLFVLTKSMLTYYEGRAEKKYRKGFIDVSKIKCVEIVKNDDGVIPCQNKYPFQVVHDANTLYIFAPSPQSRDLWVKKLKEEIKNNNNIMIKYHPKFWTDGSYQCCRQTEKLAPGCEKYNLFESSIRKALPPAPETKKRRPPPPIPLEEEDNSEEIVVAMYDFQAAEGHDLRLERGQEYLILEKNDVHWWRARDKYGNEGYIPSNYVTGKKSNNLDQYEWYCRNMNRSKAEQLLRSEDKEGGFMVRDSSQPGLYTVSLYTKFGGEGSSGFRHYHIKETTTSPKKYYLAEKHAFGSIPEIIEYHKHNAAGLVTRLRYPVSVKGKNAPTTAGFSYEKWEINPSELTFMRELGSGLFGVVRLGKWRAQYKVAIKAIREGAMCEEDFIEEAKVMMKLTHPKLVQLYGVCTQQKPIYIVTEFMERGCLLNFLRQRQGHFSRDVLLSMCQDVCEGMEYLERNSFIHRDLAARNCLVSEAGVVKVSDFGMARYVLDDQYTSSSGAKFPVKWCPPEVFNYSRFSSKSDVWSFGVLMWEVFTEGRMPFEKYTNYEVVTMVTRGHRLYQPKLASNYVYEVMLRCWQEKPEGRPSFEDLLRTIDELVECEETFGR
Procedure, shortened: as §1

MARK1 = target: T4, MARK1 (Homo sapiens, UniProt Q9P0L2)
T4 construct: purchased Reaction Biology Corp
Procedure, shortened: as §1

STK32C/YANK3 = target: T5, STK32C/YANK3 (Homo sapiens, UniProt Q86UX6)
T5 construct: purchased Reaction Biology Corp
Procedure, shortened: as §1

CK2a = target: T6, CK2a (Homo sapiens, UniProt P68400)
T6 construct: purchased Reaction Biology Corp
Procedure, shortened: as §1

MNK1 = target: T7, MNK1 (Homo sapiens, UniProt Q9BUB5)
T7 construct: purchased Reaction Biology Corp
Procedure, shortened: as §1

OSR1/OXSR1 = target: T8, OSR1/OXSR1 (Homo sapiens, UniProt O95747)
T8 construct: purchased Reaction Biology Corp
Procedure, shortened: as §1

[1] = read-out: % Enzyme Activity (relative to DMSO controls) Run 1
[2] = read-out: % Enzyme Activity (relative to DMSO controls) Run 2

T2 sequence (Q6IQ55 whole entry): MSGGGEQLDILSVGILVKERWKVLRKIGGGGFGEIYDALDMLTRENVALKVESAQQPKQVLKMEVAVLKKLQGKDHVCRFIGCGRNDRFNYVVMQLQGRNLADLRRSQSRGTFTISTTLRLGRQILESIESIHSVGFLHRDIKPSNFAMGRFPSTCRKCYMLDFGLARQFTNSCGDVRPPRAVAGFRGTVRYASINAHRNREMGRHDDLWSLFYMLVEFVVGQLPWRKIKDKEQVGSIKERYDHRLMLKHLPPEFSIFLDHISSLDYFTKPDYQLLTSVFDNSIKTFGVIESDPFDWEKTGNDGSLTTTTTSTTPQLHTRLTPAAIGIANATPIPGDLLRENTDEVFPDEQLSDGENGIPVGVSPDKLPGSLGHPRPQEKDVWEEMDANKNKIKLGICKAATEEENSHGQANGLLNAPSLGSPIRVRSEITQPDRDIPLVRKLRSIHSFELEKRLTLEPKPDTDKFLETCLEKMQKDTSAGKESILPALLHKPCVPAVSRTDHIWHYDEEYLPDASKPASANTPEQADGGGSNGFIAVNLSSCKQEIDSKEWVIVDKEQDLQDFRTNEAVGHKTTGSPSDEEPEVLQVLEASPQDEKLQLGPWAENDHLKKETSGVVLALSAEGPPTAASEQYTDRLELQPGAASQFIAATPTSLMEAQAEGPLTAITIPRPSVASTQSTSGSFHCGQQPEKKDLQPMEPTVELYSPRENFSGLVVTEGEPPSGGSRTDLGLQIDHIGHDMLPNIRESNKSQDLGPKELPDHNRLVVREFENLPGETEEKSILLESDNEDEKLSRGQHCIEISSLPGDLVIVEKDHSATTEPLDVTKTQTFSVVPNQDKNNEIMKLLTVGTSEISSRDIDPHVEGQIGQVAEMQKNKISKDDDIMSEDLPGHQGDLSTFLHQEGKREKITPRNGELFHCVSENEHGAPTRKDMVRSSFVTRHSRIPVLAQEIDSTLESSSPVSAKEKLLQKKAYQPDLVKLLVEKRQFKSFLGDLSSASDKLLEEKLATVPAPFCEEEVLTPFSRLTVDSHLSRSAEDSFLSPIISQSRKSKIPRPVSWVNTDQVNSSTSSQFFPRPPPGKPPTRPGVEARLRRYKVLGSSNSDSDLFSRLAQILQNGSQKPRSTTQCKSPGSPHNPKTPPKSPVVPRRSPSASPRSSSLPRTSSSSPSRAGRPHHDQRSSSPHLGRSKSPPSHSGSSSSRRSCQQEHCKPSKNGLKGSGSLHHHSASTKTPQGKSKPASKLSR
T7 sequence (Q9BUB5 whole entry): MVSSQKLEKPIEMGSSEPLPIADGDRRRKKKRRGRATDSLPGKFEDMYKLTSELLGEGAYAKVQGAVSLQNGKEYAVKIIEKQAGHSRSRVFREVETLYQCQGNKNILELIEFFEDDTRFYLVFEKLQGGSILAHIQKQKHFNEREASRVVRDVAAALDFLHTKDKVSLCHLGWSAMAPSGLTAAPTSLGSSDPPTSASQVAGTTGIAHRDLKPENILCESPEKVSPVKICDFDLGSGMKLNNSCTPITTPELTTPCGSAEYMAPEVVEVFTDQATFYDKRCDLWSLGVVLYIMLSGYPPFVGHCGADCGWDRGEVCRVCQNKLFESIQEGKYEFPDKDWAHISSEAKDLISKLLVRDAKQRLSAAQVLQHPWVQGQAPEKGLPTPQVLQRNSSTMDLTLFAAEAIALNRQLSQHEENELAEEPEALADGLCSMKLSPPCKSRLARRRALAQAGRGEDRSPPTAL
T6 sequence (P68400 whole entry): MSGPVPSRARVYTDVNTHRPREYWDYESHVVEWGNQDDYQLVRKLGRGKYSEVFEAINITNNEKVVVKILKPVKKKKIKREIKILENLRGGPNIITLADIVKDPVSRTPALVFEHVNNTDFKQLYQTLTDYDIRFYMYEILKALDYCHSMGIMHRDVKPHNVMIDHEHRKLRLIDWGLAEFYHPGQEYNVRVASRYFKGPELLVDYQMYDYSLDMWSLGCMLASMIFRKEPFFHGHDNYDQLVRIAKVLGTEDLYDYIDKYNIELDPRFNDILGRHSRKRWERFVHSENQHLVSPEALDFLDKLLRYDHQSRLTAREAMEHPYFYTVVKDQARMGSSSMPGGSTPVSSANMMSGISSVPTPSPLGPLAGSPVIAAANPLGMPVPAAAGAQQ
T4 sequence (Q9P0L2 whole entry): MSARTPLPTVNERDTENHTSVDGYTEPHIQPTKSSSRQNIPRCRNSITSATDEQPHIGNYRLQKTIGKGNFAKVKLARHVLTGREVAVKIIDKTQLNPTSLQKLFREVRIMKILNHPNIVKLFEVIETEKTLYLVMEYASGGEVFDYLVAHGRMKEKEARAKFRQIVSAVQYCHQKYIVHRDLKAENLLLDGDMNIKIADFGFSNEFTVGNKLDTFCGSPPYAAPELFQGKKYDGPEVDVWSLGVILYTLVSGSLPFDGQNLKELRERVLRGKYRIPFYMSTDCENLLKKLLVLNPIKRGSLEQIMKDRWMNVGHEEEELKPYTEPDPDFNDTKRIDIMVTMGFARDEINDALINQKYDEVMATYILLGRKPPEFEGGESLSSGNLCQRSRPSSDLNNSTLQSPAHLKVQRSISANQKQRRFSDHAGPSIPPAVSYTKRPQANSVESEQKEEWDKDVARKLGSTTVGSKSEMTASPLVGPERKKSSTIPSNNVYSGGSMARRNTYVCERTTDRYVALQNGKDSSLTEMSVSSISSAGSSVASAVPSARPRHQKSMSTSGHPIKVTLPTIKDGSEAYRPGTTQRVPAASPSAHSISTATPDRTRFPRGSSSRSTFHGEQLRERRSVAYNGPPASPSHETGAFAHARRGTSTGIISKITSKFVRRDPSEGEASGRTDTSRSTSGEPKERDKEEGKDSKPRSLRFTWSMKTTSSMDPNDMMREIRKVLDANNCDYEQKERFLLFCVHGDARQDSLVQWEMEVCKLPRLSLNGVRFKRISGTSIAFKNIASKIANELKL
T8 sequence (O95747 whole entry): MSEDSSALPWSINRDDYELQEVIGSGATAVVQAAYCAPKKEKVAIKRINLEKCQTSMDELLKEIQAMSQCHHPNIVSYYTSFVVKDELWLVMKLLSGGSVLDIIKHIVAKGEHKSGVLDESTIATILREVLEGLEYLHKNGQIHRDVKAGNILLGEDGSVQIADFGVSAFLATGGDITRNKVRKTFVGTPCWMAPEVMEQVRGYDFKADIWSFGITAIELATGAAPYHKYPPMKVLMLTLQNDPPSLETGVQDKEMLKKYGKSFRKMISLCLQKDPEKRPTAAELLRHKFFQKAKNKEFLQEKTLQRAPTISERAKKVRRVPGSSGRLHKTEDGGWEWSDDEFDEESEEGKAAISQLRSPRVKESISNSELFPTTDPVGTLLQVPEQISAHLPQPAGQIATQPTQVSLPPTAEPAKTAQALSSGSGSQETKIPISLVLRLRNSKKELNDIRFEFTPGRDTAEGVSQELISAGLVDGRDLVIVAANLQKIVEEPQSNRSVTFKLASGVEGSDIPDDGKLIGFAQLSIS
T5 sequence (Q86UX6 whole entry): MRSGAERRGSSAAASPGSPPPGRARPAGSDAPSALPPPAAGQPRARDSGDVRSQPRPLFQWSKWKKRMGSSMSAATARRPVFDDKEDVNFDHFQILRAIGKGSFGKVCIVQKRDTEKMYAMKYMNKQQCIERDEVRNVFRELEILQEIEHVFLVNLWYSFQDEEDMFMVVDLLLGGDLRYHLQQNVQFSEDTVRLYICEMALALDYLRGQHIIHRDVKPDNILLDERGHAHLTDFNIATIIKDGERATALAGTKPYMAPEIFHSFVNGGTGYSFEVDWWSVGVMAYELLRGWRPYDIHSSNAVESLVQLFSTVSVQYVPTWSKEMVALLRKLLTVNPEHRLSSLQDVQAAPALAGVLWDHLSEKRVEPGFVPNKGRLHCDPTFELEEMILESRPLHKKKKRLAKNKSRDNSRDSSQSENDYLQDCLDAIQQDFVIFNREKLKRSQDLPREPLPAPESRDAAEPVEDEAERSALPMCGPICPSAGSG

C=CC(=O)Nc1cccc(Nc2nc(Nc3ccc(OCCOC)c(F)c3)ncc2F)c1 [Compound 2]
inhibition at 3 µM (EPHB2): -5.45% | remaining activity at 3 µM (EPHB2; [1]): 104% | remaining activity at 3 µM (EPHB2; [2]): 107% | inhibition at 3 µM (TTBK2): -0.86% | remaining activity at 3 µM (TTBK2; [1]): 102% | remaining activity at 3 µM (TTBK2; [2]): 99.7% | inhibition at 3 µM (TEC): 89.1% | remaining activity at 3 µM (TEC; [1]): 10.4% | remaining activity at 3 µM (TEC; [2]): 11.5% | inhibition at 3 µM (MARK1): 5.86% | remaining activity at 3 µM (MARK1; [1]): 90.9% | remaining activity at 3 µM (MARK1; [2]): 97.3% | inhibition at 3 µM (STK32C/YANK3): -6.01% | remaining activity at 3 µM (STK32C/YANK3; [1]): 105% | remaining activity at 3 µM (STK32C/YANK3; [2]): 107% | inhibition at 3 µM (CK2a): -20.1% | remaining activity at 3 µM (CK2a; [1]): 117% | remaining activity at 3 µM (CK2a; [2]): 123% | inhibition at 3 µM (MNK1): 3.98% | remaining activity at 3 µM (MNK1; [1]): 97.8% | remaining activity at 3 µM (MNK1; [2]): 94.3% | inhibition at 3 µM (OSR1/OXSR1): -19.2% | remaining activity at 3 µM (OSR1/OXSR1; [1]): 117% | remaining activity at 3 µM (OSR1/OXSR1; [2]): 122%
